Here are results for 31 compounds from US11479551B2, “MTA-cooperative PRMT5 inhibitors” (Mirati Therapeutics, Inc., priority 2019, dated 2022).

Test [1] concerns the target T1, PRMT5/MEP50 complex (Homo sapiens (Human), UniProt O14744). Put plainly: PRMT5:MEP50 FlashPlate Assay (histone H4 peptide substrate, plus and minus MTA). The class given is biochemical. Here is the method: (§1) The PRMT5 inhibitory activity of compounds of the present invention was determined using either a PRMT5:MEP50 FlashPlate Assay (Reaction Biology Corporation) or a PRMT5:MEP50 HotSpot Assay (Reaction Biology Corporation).
1. PRMT5:MEP50 FlashPlate Assay

Test [2] addresses T1, PRMT5/MEP50 complex. Briefly: PRMT5:MEP50 HotSpot Assay (full-length histone H2A substrate, plus and minus MTA). The class given is biochemical. On the procedure: as §1
The assay uses recombinant full-length histone H2A as the PRMT5 substrate. […] The reaction was stopped and transferred to filter paper for detection. The amount of tritiated H2A in each sample was determined using a scintillation counter.

The mark [3] stands for this setting: IC50 + 2 μM MTA (nM), in the presence of 2 μM MTA.
Setting [4] is: in the absence of MTA, read-out: IC50.
[5] abbreviates: IC50 + 2 μM MTA, in the presence of 2 μM MTA.

Where only a bound is given, the exact number is not on record here.

T1 sequence (O14744 2-637): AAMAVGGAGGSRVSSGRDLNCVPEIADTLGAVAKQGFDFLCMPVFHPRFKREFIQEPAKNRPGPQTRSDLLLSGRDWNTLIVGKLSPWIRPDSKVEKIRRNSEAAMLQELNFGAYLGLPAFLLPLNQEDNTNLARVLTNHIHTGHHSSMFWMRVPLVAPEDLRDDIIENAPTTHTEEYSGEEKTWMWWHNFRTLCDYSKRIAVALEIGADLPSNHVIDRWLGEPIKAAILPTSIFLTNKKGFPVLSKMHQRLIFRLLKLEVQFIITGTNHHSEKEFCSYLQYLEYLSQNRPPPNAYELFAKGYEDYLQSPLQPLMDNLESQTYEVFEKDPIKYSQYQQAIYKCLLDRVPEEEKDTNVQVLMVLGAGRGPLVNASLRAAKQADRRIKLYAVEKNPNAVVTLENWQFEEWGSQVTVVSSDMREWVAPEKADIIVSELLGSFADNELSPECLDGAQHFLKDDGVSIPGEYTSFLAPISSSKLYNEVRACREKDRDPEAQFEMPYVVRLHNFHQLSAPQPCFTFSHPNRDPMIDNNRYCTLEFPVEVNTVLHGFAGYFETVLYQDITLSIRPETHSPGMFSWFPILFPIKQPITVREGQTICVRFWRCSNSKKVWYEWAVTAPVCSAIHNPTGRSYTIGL
T1 sequence (Q9BQA1 2-342 partner): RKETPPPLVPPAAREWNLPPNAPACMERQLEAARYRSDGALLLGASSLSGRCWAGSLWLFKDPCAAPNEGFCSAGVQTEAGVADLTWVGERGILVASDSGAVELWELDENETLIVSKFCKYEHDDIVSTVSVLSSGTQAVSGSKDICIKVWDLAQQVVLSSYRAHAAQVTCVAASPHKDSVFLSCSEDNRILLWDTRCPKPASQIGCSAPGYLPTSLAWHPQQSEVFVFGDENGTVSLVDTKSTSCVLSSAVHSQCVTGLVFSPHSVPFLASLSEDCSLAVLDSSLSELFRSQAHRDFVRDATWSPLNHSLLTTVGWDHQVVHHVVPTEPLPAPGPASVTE

As to `Cn1ncc(-c2ccc3c(=O)[nH]nc(CN)c3c2)c1-c1ccccc1` [Example 4-32, 4-(aminomethyl)-6-(1-methyl-5-phenyl-1H-pyrazol-4-yl)phthalazin-1(2H)-one], the IC50 in test [1] (setting [3]) is 1.6 nM; in test [1] (setting [4]), 45 nM; in test [2] (setting [5]) it was 2040 nM; in test [2] (setting [4]), more than 10000 nM.

As for `NCc1n[nH]c(=O)c2ccc(-c3cncc(C(O)c4ccccc4)c3)cc12` (stereo not shown) [Example 4-51, 4-(aminomethyl)-6-(5-(hydroxy(phenyl)methyl)pyridin-3-yl)phthalazin-1(2H)-one], the IC50 in test [1] (setting [3]) was 5.8 nM; in test [1] (setting [4]) it was 530 nM; in test [2] (setting [5]) it was 1510 nM; in test [2] (setting [4]), more than 10000 nM. On to `NCc1n[nH]c(=O)c2ccc(-c3cncc(Oc4ccccc4Cl)c3)cc12` [Example 4-71, 4-(aminomethyl)-6-(5-(2-chlorophenoxy)pyridin-3-yl)phthalazin-1(2H)-one], for which the IC50 in test [1] (setting [3]) was 4.9 nM; in test [1] (setting [4]), 116 nM; in test [2] (setting [5]), 1050 nM; in test [2] (setting [4]), more than 10000 nM. With `Cc1c[nH]c2ncc(-c3ccc4c(=O)[nH]nc(CN)c4c3)cc12` [Example 4-40, 4-(aminomethyl)-6-(3-methyl-1H-pyrrolo[2,3-b]pyridin-5-yl)phthalazin-1(2H)-one], the IC50 in test [1] (setting [3]) was 10 nM; in test [1] (setting [4]), 276 nM; in test [2] (setting [5]) it was 3170 nM. On to `CCc1c[nH]c2ncc(-c3ccc4c(=O)[nH]nc(CN)c4c3)cc12` [Example 4-45, 4-(aminomethyl)-6-(3-ethyl-1H-pyrrolo[2,3-b]pyridin-5-yl)phthalazin-1(2H)-one], for which the IC50 in test [1] (setting [3]) amounted to 16 nM; in test [1] (setting [4]), 291 nM; in test [2] (setting [5]) it was 2790 nM.

In the case of `NCc1n[nH]c(=O)c2ccc(-c3cnc4[nH]cc(Cl)c4c3)cc12` [Example 4-44, 4-(aminomethyl)-6-(3-chloro-1H-pyrrolo[2,3-b]pyridin-5-yl)phthalazin-1(2H)-one], the concentration for half-maximal inhibition (IC50) in test [1] (setting [3]) was 5.4 nM; in test [1] (setting [4]), 691 nM; in test [2] (setting [5]), 6830 nM; in test [2] (setting [4]), more than 10000 nM.

For the compound `NCc1n[nH]c(=O)c2ccc(-c3cncc(Oc4ccccc4)c3)cc12` [Example 3-50, 4-(aminomethyl)-6-(5-phenoxypyridin-3-yl)phthalazin-1(2H)-one], the IC50 in test [1] (setting [3]) was 10 nM; in test [1] (setting [4]) it was 277 nM; in test [2] (setting [5]) it was 3780 nM; in test [2] (setting [4]), more than 10000 nM.

In the case of `COc1cccc(-c2c(-c3ccc4c(=O)[nH]nc(CN)c4c3)cnn2C)c1` [Example 4-93, 4-(aminomethyl)-6-(5-(3-methoxyphenyl)-1-methyl-1H-pyrazol-4-yl)phthalazin-1(2H)-one], the IC50 in test [1] (setting [3]) came out at 3.3 nM; in test [1] (setting [4]), 85 nM; in test [2] (setting [5]), 845 nM. Turning to `Cc1ccc(Oc2cncc(-c3ccc4c(=O)[nH]nc(CN)c4c3)c2)c(C)c1` [Example 4-73, 4-(aminomethyl)-6-(5-(2,4-dimethylphenoxy)pyridin-3-yl)phthalazin-1(2H)-one], the figures for the IC50 in test [1] (setting [3]), in test [1] (setting [4]) and in test [2] (setting [5]) were 0.6 nM, 24 nM and 933 nM, respectively. As to `COc1ccc2ncc(-c3ccc4c(=O)[nH]nc(CN)c4c3)n2c1` [Example 4-16, 4-(aminomethyl)-6-(6-methoxyimidazo[1,2-a]pyridin-3-yl)phthalazin-1(2H)-one], the 50% inhibitory concentration (IC50) amounted to 9.4 nM in test [1] (setting [3]), 602 nM in test [1] (setting [4]) and 8850 nM in test [2] (setting [5]). As for `Cn1ncc(-c2ccc3c(=O)[nH]nc(CN)c3c2)c1OCc1c(Cl)cccc1C#N` [Example 4-174, 2-(((4-(4-(aminomethyl)-1-oxo-1,2-dihydrophthalazin-6-yl)-1-methyl-1H-pyrazol-5-yl)oxy)methyl)-3-chlorobenzonitrile], in test [2] (setting [5]), the concentration for half-maximal inhibition (IC50) was more than 10000 nM. In the case of `N#Cc1ccccc1-c1cncc(-c2ccc3c(=O)[nH]nc(CN)c3c2)c1` [Example 3-40, 2-(5-(4-(aminomethyl)-1-oxo-1,2-dihydrophthalazin-6-yl)pyridin-3-yl)benzonitrile], the IC50 was 6 nM in test [1] (setting [3]), 193 nM in test [1] (setting [4]) and 9690 nM in test [2] (setting [5]). On the same counts, the results for `NCc1n[nH]c(=O)c2ccc(-c3cnn4c3CN(c3ccccc3)CC4)cc12` [Example 4-83, 4-(aminomethyl)-6-(5-phenyl-4,5,6,7-tetrahydropyrazolo[1,5-a]pyrazin-3-yl)phthalazin-1(2H)-one] are 14 nM, 344 nM and 2710 nM.

As to `Cc1cccc(-c2c(-c3ccc4c(=O)[nH]nc(CN)c4c3)cnn2C)c1C#N` [Example 4-118, 2-(4-(4-(aminomethyl)-1-oxo-1,2-dihydrophthalazin-6-yl)-1-methyl-1H-pyrazol-5-yl)-6-methylbenzonitrile], the IC50 in test [2] (setting [5]) was determined as 724 nM; in test [2] (setting [4]), 9920 nM. For `CCc1ccc(-c2c(-c3ccc4c(=O)[nH]nc(CN)c4c3)cnn2C)cc1` [Example 4-134, 4-(aminomethyl)-6-(5-(4-ethylphenyl)-1-methyl-1H-pyrazol-4-yl)phthalazin-1(2H)-one], the IC50 in test [2] (setting [5]) is 2730 nM. Same read-out and setting: the same measure for `CCOc1ccn2ncc(-c3ccc4c(=O)[nH]nc(CN)c4c3)c2c1` [Example 4-112, 4-(aminomethyl)-6-(5-ethoxypyrazolo[1,5-a]pyridin-3-yl)phthalazin-1(2H)-one]: 1020 nM. As for `COc1cc(C#N)c(-c2c(-c3ccc4c(=O)[nH]nc(CN)c4c3)cnn2C)cc1Cl` [Example 4-133, 2-(4-(4-(aminomethyl)-1-oxo-1,2-dihydrophthalazin-6-yl)-1-methyl-1H-pyrazol-5-yl)-4-chloro-5-methoxybenzonitrile], in test [2] (setting [5]), the IC50 is 1570 nM.

On to `CCc1ccc(C#N)c(-c2c(-c3ccc4c(=O)[nH]nc(CN)c4c3)cnn2C)c1` [Example 4-125, 2-(4-(4-(aminomethyl)-1-oxo-1,2-dihydrophthalazin-6-yl)-1-methyl-1H-pyrazol-5-yl)-4-ethylbenzonitrile], for which the IC50 in test [2] (setting [5]) came out at 1000 nM. As to `CN(c1cncc(-c2ccc3c(=O)[nH]nc(CN)c3c2)c1)c1cccc2cccnc12` [Example 4-122, 4-(aminomethyl)-6-(5-(methyl(quinolin-8-yl)amino)pyridin-3-yl)phthalazin-1(2H)-one], in test [2] (setting [5]), the IC50 was 3820 nM.

As for `Cn1ncc(-c2ccc3c(=O)[nH]nc(CN)c3c2)c1-c1cccc(OC2CC2)c1C#N` [Example 4-175, 2-(4-(4-(aminomethyl)-1-oxo-1,2-dihydrophthalazin-6-yl)-1-methyl-1H-pyrazol-5-yl)-6-cyclopropoxybenzonitrile], the IC50 in test [2] (setting [5]) was determined as 1120 nM.

For the compound `Cn1ncc(-c2ccc3c(=O)[nH]nc(CN)c3c2)c1-c1cccc(OC2CCC2)c1C#N` [Example 4-177, 2-(4-(4-(aminomethyl)-1-oxo-1,2-dihydrophthalazin-6-yl)-1-methyl-1H-pyrazol-5-yl)-6-cyclobutoxybenzonitrile], the IC50 in test [2] (setting [5]) was determined as 5970 nM. Still for that read-out and setting: under `Cn1ncc(-c2ccc3c(=O)[nH]nc(CN)c3c2)c1-c1cc2cccnc2cc1C#N` [Example 4-166, 6-(4-(4-(aminomethyl)-1-oxo-1,2-dihydrophthalazin-6-yl)-1-methyl-1H-pyrazol-5-yl)quinoline-7-carbonitrile] stands 4510 nM; under `NCc1n[nH]c(=O)c2ccc(-c3cncc(C4CCCOC4)c3)cc12` (stereo not shown) [Example 4-195, 4-(aminomethyl)-6-(5-(tetrahydro-2H-pyran-3-yl)pyridin-3-yl)phthalazin-1(2H)-one], more than 10000 nM. Same read-out and setting: the same measure for `Cn1ncc(-c2ccc3c(=O)[nH]nc(CN)c3c2)c1OCc1ccccc1` [Example 4-115, 4-(aminomethyl)-6-(5-(benzyloxy)-1-methyl-1H-pyrazol-4-yl)phthalazin-1(2H)-one]: 377 nM; for `CCCOc1cccc(-c2c(-c3ccc4c(=O)[nH]nc(CN)c4c3)cnn2C)c1C#N` [Example 4-178, 2-(4-(4-(aminomethyl)-1-oxo-1,2-dihydrophthalazin-6-yl)-1-methyl-1H-pyrazol-5-yl)-6-propoxybenzonitrile]: 4880 nM.

Regarding `N#Cc1ccc(C#N)c(-c2cncc(-c3ccc4c(=O)[nH]nc(CN)c4c3)c2)c1` [Example 8-9, 2-(5-(4-(aminomethyl)-1-oxo-1,2-dihydrophthalazin-6-yl)pyridin-3-yl)terephthalonitrile], in test [2] (setting [5]), the IC50 is more than 10000 nM. On the same count and under the same terms, the same measure for `CCc1ccc(-c2c(-c3ccc4c(=O)[nH]nc(CN)c4c3)cnn2C)c(C#N)c1` [Example 4-124, 2-(4-(4-(aminomethyl)-1-oxo-1,2-dihydrophthalazin-6-yl)-1-methyl-1H-pyrazol-5-yl)-5-ethylbenzonitrile]: 826 nM.

With `Cn1ncc(-c2ccc3c(=O)[nH]nc(CN)c3c2)c1-c1ccccc1C(F)F` [Example 4-153, 4-(aminomethyl)-6-(5-(2-(difluoromethyl)phenyl)-1-methyl-1H-pyrazol-4-yl)phthalazin-1(2H)-one], in test [2] (setting [5]), the IC50 was 1650 nM. Turning to `CCc1cccc(-c2c(-c3ccc4c(=O)[nH]nc(CN)c4c3)cnn2C)c1C#N` [Example 4-123, 2-(4-(4-(aminomethyl)-1-oxo-1,2-dihydrophthalazin-6-yl)-1-methyl-1H-pyrazol-5-yl)-6-ethylbenzonitrile], the IC50 in test [2] (setting [5]) came out at 549 nM. `Cn1ncc(-c2ccc3c(=O)[nH]nc(CN)c3c2)c1-c1c(Cl)cccc1Cl` [Example 4-144, 4-(aminomethyl)-6-(5-(2,6-dichlorophenyl)-1-methyl-1H-pyrazol-4-yl)phthalazin-1(2H)-one]: the IC50 in test [2] (setting [5]) stood at 454 nM. Take `COc1ccc(Oc2cncc(-c3ccc4c(=O)[nH]nc(CN)c4c3)c2)c(OC)c1` [Example 4-162, 4-(aminomethyl)-6-(5-(2,4-dimethoxyphenoxy)pyridin-3-yl)phthalazin-1(2H)-one]: the IC50 in test [2] (setting [5]) was 842 nM.
